The results in this text go back to US9261498B2, “Biomarker for sensitivity to mTOR inhibitor therapy in kidney cancer” (The Regents of the University of California, priority 2005, dated 2016).

SMILES strings stand for the structures.

This test deals with VEGF. Nature of the test: VEGF ELISA of conditioned media. Type of test: cell-based, human. Conditions: VHL knockdown cells, 10 nM CCI-779, 36 hours, normalized to total cellular protein. Here is the method:
FIGS. 2A-2C. Effects of VHL knockdown on angiogenesis. (a) Microvessel density was quantified by CD-31 immunolabeling (arrows) in the xenograft tumors, and difference between CCI-779 treated (+) and vehicle (−) treated mice quantified (n=6 in each group). P<0.0033 for microvessel density counts in VHL shRNA compared to vector only (see blue bars). (b) Similar number of cells were plated and maintained in 10% serum rich media, in the presence (+) or absence (−) of 10 nM CCI-779. Thirty-six hours later, conditioned media was analyzed by anti-VEGF ELISA and cell extracts prepared for protein quantification. VEGF values were normalized to total cellular protein. Error bars equal one standard deviation (n=3). […] Bound antibody was detected using enhanced chemiluminescence (ECL, Amersham). For VEGF ELISA quantification, cells were plated in 6 well plates (1×10^5 per well). […] Thirty-six hours later, VEGF ELISA (R&D Systems) was performed according to the manufacturer's instructions, using a Fisher Plate reader. […] Bound antibody was detected using enhanced chemiluminescence (ECL, Amersham). For VEGF ELISA quantification, cells were plated in 6 well plates (1×10^5 per well). […] Thirty-six hours later, VEGF ELISA (R&D Systems) was performed according to the manufacturer's instructions, using a Fisher Plate reader. […]
Background: In an ELISA, binding on a coated surface is turned into a signal by an enzyme label.

Consider `CO[C@H]1C[C@@H]2CC[C@@H](C)[C@@](O)(O2)C(=O)C(=O)N2CCCC[C@H]2C(=O)O[C@H]([C@H](C)C[C@@H]2CC[C@@H](OC(=O)C(C)(CO)CO)[C@H](OC)C2)CC(=O)[C@H](C)/C=C(\C)[C@@H](O)[C@@H](OC)C(=O)[C@H](C)C[C@H](C)/C=C/C=C/C=C/1C` [CCI-779], for which the “reduction of secreted VEGF levels” value stood at 2 fold.
